Test [1] can be described thus: Anticancer activity against human PA1 cells after 48 hrs by MTT assay. The following applies: PA-1, 48 h. It is filed as functional, cell-based.
The test system of the next test is MDA-MB-231. Nature of the test: Anticancer activity against human MDA-MB-231 cells after 48 hrs by MTT assay. The test is classed as functional, cell-based. Conditions: MDA-MB-231, 48 h.
Test [2] in a line: Anticancer activity against human BT549 cells after 48 hrs by MTT assay. The test is classed as functional, cell-based. The following applies: BT-549, 48 h.
The nature of test [3]: Anticancer activity against human PC3 cells after 48 hrs by MTT assay. The test is classed as functional, cell-based. The following applies: PC-3, 48 h.
Test [4] in a line: Anticancer activity against human DU145 cells after 48 hrs by MTT assay. The following applies: DU-145, 48 h. The test is classed as functional, cell-based.
Test [5] is described as follows: Cytotoxicity against human RWPE1 cells after 48 hrs by MTT assay. It is filed as cell-based. Conditions: RWPE-1, 48 h.
Test [6] is described as follows: Selectivity index, ratio of IC50 for human RWPE1 cells to IC50 for human DU145 cells. It is filed as functional.

Turning to `O=c1[nH]cc(F)c(=O)[nH]1` [FLUOROURACIL], the IC50 was 7.59 µM in test [1]; 45.4 µM in the test with MDA-MB-231; 19.8 µM in test [2]; 68.3 µM in test [3]; 39.2 µM in test [4].

For `CCN1C(=O)C(O)(Cc2nnn[nH]2)c2cc(Cl)ccc21` (centres undefined), the IC50 worked out at 49.5 µM in test [1]; 84.9 µM in the test with MDA-MB-231; 85.4 µM in test [2]; 79.3 µM in test [3]; 21.5 µM in test [4].

For the compound `CN1C(=O)C(O)(Cc2nnn[nH]2)c2cc(F)ccc21` (centres undefined), the IC50 in test [1] is greater than 100 µM; in the test with MDA-MB-231 it was greater than 100 µM; in test [2] it was greater than 100 µM; in test [3] it was 38.2 µM; in test [4] it was greater than 100 µM.

Turning to `CCN1C(=O)C(O)(Cc2nnn[nH]2)c2cc(C)ccc21` (centres undefined), the IC50 in test [1] was greater than 100 µM; in the test on MDA-MB-231, greater than 100 µM; in test [2] it was greater than 100 µM; in test [3], greater than 100 µM; in test [4], 14.6 µM; in test [5] it was greater than 100 µM.

Take `O=C1N(Cc2ccccc2)c2ccc(Br)cc2C1(O)Cc1nnn[nH]1` (centres undefined): the IC50 came to 74.4 µM in test [1]; 96.1 µM with MDA-MB-231; 39.6 µM in test [2]; 75.8 µM in test [3]; 46.2 µM in test [4].

As to `CN1C(=O)C(O)(Cc2nnn[nH]2)c2cc(Br)ccc21` (centres undefined), the IC50 is greater than 100 µM in test [1]; 67.3 µM in the test with MDA-MB-231; greater than 100 µM in test [2]; greater than 100 µM in test [3]; greater than 100 µM in test [4].

As to `O=C1N(Cc2ccccc2)c2ccccc2C1(O)Cc1nnn[nH]1` (centres undefined), the half-maximal inhibitory concentration (IC50) is greater than 100 µM in test [1]; 74.1 µM in the test on MDA-MB-231; greater than 100 µM in test [2]; greater than 100 µM in test [3]; greater than 100 µM in test [4].

As for `CN1C(=O)C(O)(Cc2nnn[nH]2)c2ccccc21` (centres undefined), the IC50 is 45.5 µM in test [1]; greater than 100 µM in the test with MDA-MB-231; greater than 100 µM in test [2]; 44.8 µM in test [3]; 36.8 µM in test [4].

Regarding `O=C1N(Cc2ccccc2)c2ccc(Cl)cc2C1(O)Cc1nnn[nH]1` (centres undefined), the IC50 in test [1] is 100 µM; in the test on MDA-MB-231, 30.3 µM; in test [2], greater than 100 µM; in test [3], greater than 100 µM; in test [4], greater than 100 µM.

On to `O=C1N(Cc2ccc(Br)cc2)c2ccc(F)cc2C1(O)Cc1nnn[nH]1` (centres undefined), for which the IC50 is greater than 100 µM in test [1]; greater than 100 µM with MDA-MB-231; greater than 100 µM in test [2]; greater than 100 µM in test [3]; 14.4 µM in test [4]; greater than 100 µM in test [5].

In the case of `CCN1C(=O)C(O)(Cc2nnn[nH]2)c2cc(Br)ccc21` (centres undefined), the IC50 (in test [1]; with MDA-MB-231; in test [2]; in test [3]; in test [4]) was greater than 100 µM each time.

For `CN1C(=O)C(O)(Cc2nnn[nH]2)c2cc(Cl)ccc21` (centres undefined), the 50% inhibitory concentration (IC50) in test [1] is greater than 100 µM; in the test on MDA-MB-231, greater than 100 µM; in test [2], greater than 100 µM; in test [3], greater than 100 µM; in test [4], 76 µM.

As to `Cc1ccc2c(c1)C(O)(Cc1nnn[nH]1)C(=O)N2C` (centres undefined), the IC50 (in test [1]; in the test on MDA-MB-231; in test [2]; in test [3]; in test [4]) was greater than 100 µM each time.

Turning to `CCN1C(=O)C(O)(Cc2nnn[nH]2)c2ccccc21` (centres undefined), the IC50 (in test [1]; in the test with MDA-MB-231; in test [2]; in test [3]; in test [4]) was greater than 100 µM throughout.

With `O=C1N(Cc2ccc(Br)cc2)c2ccc(Cl)cc2C1(O)Cc1nnn[nH]1` (centres undefined), the IC50 in test [1] was 35.8 µM; with MDA-MB-231 it was greater than 100 µM; in test [2] it was 74.5 µM; in test [3] it was 87.9 µM; in test [4] it was 19.5 µM.

`O=C1N(Cc2ccc(Br)cc2)c2ccc(Br)cc2C1(O)Cc1nnn[nH]1` (centres undefined): the IC50 in test [1] was greater than 100 µM; in the test with MDA-MB-231, 65.4 µM; in test [2], 88.8 µM; in test [3], greater than 100 µM; in test [4], 59.6 µM.

For `O=C1N(Cc2ccc(Br)cc2)c2ccccc2C1(O)Cc1nnn[nH]1` (centres undefined), the IC50 was 38.9 µM in test [1]; greater than 100 µM in the test on MDA-MB-231; 73.4 µM in test [2]; 10.1 µM in test [3]; 7.01 µM in test [4]; 76 µM in test [5]. Also, the “Ratio IC50” value in test [6] was 10.

Take `O=C1N(Cc2ccccc2)c2ccc(F)cc2C1(O)Cc1nnn[nH]1` (centres undefined): the IC50 in test [1] is greater than 100 µM; in the test with MDA-MB-231, 27.2 µM; in test [2], 78.7 µM; in test [3], greater than 100 µM; in test [4], greater than 100 µM.

The values are drawn from ChEMBL document CHEMBL3734649, “H2O-mediated isatin spiro-epoxide ring opening with NaCN: Synthesis of novel 3-tetrazolylmethyl-3-hydroxy-oxindole hybrids and their anticancer evaluation” (Eur J Med Chem, 2015).
